Measured values reported in patent US7790769B2, “Merocyanine derivatives” (Ciba Corporation, priority 2005, dated 2010).

Experiment: Solubility behaviour in water and cosmetic solvents/oils
Assay type: physicochemical
Conditions: for Solubility behaviour [%], Cyclomethicone: solvent: Cyclomethicone; for Solubility behaviour [%], Finsolve TN: solvent: Finsolve TN; for Solubility behaviour [%], Jojoba Oil: solvent: Jojoba Oil; for Solubility behaviour [%], Mineral Oil: solvent: Mineral Oil; for Solubility behaviour [%], Mygliol: solvent: Mygliol; for Solubility behaviour [%], Polydecene: solvent: Polydecene; for Solubility behaviour [%], Propyleneglycol: solvent: Propyleneglycol; for Solubility behaviour [%], (Water): solvent: water

## CCCCC(CC)CN(CC(CC)CCCC)C1=CC(=C(C#N)C#N)CC(C)(C)C1 (stereo not shown)
  Solubility behaviour [%], Cyclomethicone: 0.509%
  Solubility behaviour [%], Finsolve TN: >5%
  Solubility behaviour [%], Jojoba Oil: 2.470%
  Solubility behaviour [%], Mineral Oil: 0.569%
  Solubility behaviour [%], Mygliol: >5%
  Solubility behaviour [%], Polydecene: 0.367%
  Solubility behaviour [%], Propyleneglycol: 0.361%
  Solubility behaviour [%], (Water): 0.000%

## CCCCC(CC)CN(CC(CC)CCCC)C1=CC(=C(C#N)C#N)CCC1 (stereo not shown)
  Solubility behaviour [%], Cyclomethicone: 0.540%
  Solubility behaviour [%], Finsolve TN: >50%
  Solubility behaviour [%], Jojoba Oil: >50%
  Solubility behaviour [%], Mineral Oil: 1.514%
  Solubility behaviour [%], Mygliol: >50%
  Solubility behaviour [%], Polydecene: 0.734%
  Solubility behaviour [%], Propyleneglycol: 0.766%
  Solubility behaviour [%], (Water): 0.000%
